One block for each compound: values may come before it.
How the values were obtained:
[1] = system: HER2+BT474 breast carcinoma cells; assay: Proliferation assay in BT474 (ATPlite); assay type: cell-based; settings: Homo sapiens, BT-474, 72 hours, average of three independent experiments
Protocol: (§1) The compounds were dissolved in 100% DMSO to make 10 mM stock solutions. HER2+BT474 breast carcinoma cells were cultured in DMEM/F12 media, supplemented with 10% FBS. Log-phase growing BT474 cells were seeded in 96 well plates at 1.5×10E4 per well. At this cell density, BT474 is expected to reach confluency about 70-80% in 3 days. Different dilutions of compounds or vehicle in 200 μl (concentration range 0.004-10 μM) were added to the cells and incubated for 72 hours. Upon completion of the incubation, media were gently removed by suction and 100 μl of ATPlite solution (Perkin Elmer) was added in each well. Viable cells were measured by detecting luminescence generated from reaction of ATPlite solution and ATP in the cells using a 96-well microplate luminescence reader. Relative luminescence light unit is correlated to the amount of ATP in viable cells. The assays were performed in duplicates. IC50 was calculated using XLfit. The IC50 shown in Table 4 below is the average IC50 from three independent experiments.

HCC1569 = assay: Proliferation assay in HCC1569; assay type: cell-based; settings: Homo sapiens, HCC1569, Breast (Her2+; Her2i res)
Protocol: as §1
(§2) Additional proliferation assays were performed for certain exemplified compounds using the methods similar to the one described above in multiple cancer cell lines.

H1975 = assay: Proliferation assay in H1975; assay type: cell-based; settings: Homo sapiens, NCI-H1975, H1975, Lung (EGFR mut)
Protocol: as §1, §2

NCI-H2228 = assay: Proliferation assay in NCI-H2228; assay type: cell-based; settings: Homo sapiens, NCI-H2228, Lung (EML4-ALK+)
Protocol: as §1, §2

H23 = assay: Proliferation assay in H23; assay type: cell-based; settings: Homo sapiens, NCI-H23, H23, Lung
Protocol: as §1, §2

A549 = assay: Proliferation assay in A549; assay type: cell-based; settings: Homo sapiens, A549, Lung
Protocol: as §1, §2

H460 = assay: Proliferation assay in H460; assay type: cell-based; settings: Homo sapiens, NCI-H460, H460, Lung
Protocol: as §1, §2

N87 = assay: Proliferation assay in N87; assay type: cell-based; settings: N87, Gastric (Her2+)
Protocol: as §1, §2

SKOV-3 = assay: Proliferation assay in SKOV-3; assay type: cell-based; settings: Homo sapiens, SK-OV-3, SKOV-3, Ovarian (Her2+)
Protocol: as §1, §2

A498 = assay: Proliferation assay in A498; assay type: cell-based; settings: Homo sapiens, A498, Renal (VHL mut)
Protocol: as §1, §2

HCC827 = assay: Proliferation assay in HCC827; assay type: cell-based; settings: Homo sapiens, HCC827, Lung (EGFR mut)
Protocol: as §1, §2

RPM18226 = assay: Proliferation assay in RPM18226; assay type: cell-based; settings: RPM18226, Multiple myeloma
Protocol: as §1, §2

PC3 = assay: Proliferation assay in PC3; assay type: cell-based; settings: Homo sapiens, PC-3, PC3, Prostate
Protocol: as §1, §2

HCT116 = assay: Proliferation assay in HCT116; assay type: cell-based; settings: Homo sapiens, HCT-116, HCT116, Colon
Protocol: as §1, §2

HT29 = assay: Proliferation assay in HT29; assay type: cell-based; settings: Homo sapiens, HT-29, HT29, Colon
Protocol: as §1, §2

BT474 breast tumor cells = settings: xenografts bearing BT474 breast tumor cells; earlier work of the inventors; cited from earlier work
[2] = system: HSP90 client protein in SKBR3 cell lines; settings: earlier work of the inventors; cited from earlier work

IC50 [1]: 0.058 µM
IC50 (HCC1569): 377 nM
IC50 (H1975): 73 nM
IC50 (NCI-H2228): 241 nM
IC50 (A549): 90 nM
IC50 (H460): 45 nM
IC50 (SKOV-3): 67 nM
Compound: C[C@@H]1C/C=C/[C@@H](O)C/C=C/C(=N/OCC(=O)N2CCCCC2)Cc2cc(O)cc(O)c2C(=O)O1 [As-10a(6-S)-E]
IC50 (H23): 88 nM
IC50 (N87): 73 nM
IC50 (A498): 99 nM

IC50 [1]: 0.026 µM
IC50 (HCC1569): 100 nM
IC50 (H1975): 35 nM
IC50 (NCI-H2228): 77 nM
IC50 (A549): 22 nM
IC50 (H460): 15 nM
IC50 (SKOV-3): 25 nM
Compound: C[C@@H]1C/C=C/[C@@H](O)C/C=C/C(=N\OCC(=O)N2CCCCC2)Cc2cc(O)cc(O)c2C(=O)O1 [As-10a(6-S)-Z]
IC50 (H23): 28 nM
IC50 (N87): 11 nM
IC50 (A498): 24 nM

IC50 [1]: 0.027 µM
IC50 (HCC1569): 187 nM
IC50 (H1975): 33 nM
IC50 (NCI-H2228): 281 nM
IC50 (A549): 126 nM
IC50 (SKOV-3): 45 nM
Compound: C[C@@H]1C/C=C/[C@@H](O)C/C=C/C(=N/OCC(=O)N2CCCCC2)Cc2c(Cl)c(O)cc(O)c2C(=O)O1 [As-10b(6-S)-E]
IC50 (H23): 36 nM
IC50 (N87): 13 nM
IC50 (A498): 37 nM

IC50 [1]: 0.824 µM
Compound: C[C@@H]1C/C=C/[C@@H](O)C/C=C/C(=N\OCC(=O)N2CCCCC2)Cc2c(Cl)c(O)cc(O)c2C(=O)O1 [As-10b(6-S)-Z]

IC50 (HCC1569): 140 nM
IC50 (HCC827): 79 nM
IC50 (H1975): 37 nM
IC50 (NCI-H2228): 87 nM
IC50 (H460): 33 nM
IC50 (SKOV-3): 33 nM
IC50 (PC3): 44 nM
IC50 (HCT116): 76 nM
IC50 (HT29): 33 nM
Compound: C[C@@H]1C/C=C/[C@@H](N)C/C=C/C(=N/OCC(=O)N2CCCCC2)Cc2cc(O)cc(O)c2C(=O)O1 [As-13(6S)-E]
IC50 (H23): 41 nM
IC50 (N87): 7 nM
IC50 (A498): 180 nM
IC50 (RPM18226): 46 nM

IC50 (HCC1569): 175 nM
IC50 (HCC827): 105 nM
IC50 (H1975): 51 nM
IC50 (NCI-H2228): 139 nM
IC50 (PC3): 82 nM
IC50 (HCT116): 101 nM
IC50 (HT29): 92 nM
Compound: C[C@@H]1C/C=C/[C@@H](N)C/C=C/C(=N\OCC(=O)N2CCCCC2)Cc2cc(O)cc(O)c2C(=O)O1 [As-13(6S)-Z]
IC50 (N87): 12 nM
IC50 (A498): 166 nM
IC50 (RPM18226): 72 nM

IC50 [1]: 7.84 µM
Compound: C[C@@H]1C/C=C/[C@@H](NC(=O)CS[C@@H]2OC(CO)[C@@H](O)C(O)C2O)C/C=C/C(=N/OCC(=O)N2CCCCC2)Cc2cc(O)cc(O)c2C(=O)O1 (stereo partly drawn) [Compound 5E]

IC50 [1]: > 10 µM
Compound: C[C@@H]1C/C=C/[C@@H](NC(=O)CS[C@@H]2OC(CO)[C@@H](O)C(O)C2O)C/C=C/C(=N\OCC(=O)N2CCCCC2)Cc2cc(O)cc(O)c2C(=O)O1 (stereo partly drawn) [Compound 5Z]

IC50 [1]: 4.76 µM
Compound: C[C@@H]1C/C=C/[C@H](NC(=O)CS[C@@H]2OC(CO)[C@@H](O)C(O)C2O)C/C=C/C(=N/OCC(=O)N2CCCCC2)Cc2cc(O)cc(O)c2C(=O)O1 (stereo partly drawn) [Compound 11E]

IC50 [1]: > 10 µM
Compound: C[C@@H]1C/C=C/[C@H](NC(=O)CS[C@@H]2OC(CO)[C@@H](O)C(O)C2O)C/C=C/C(=N\OCC(=O)N2CCCCC2)Cc2cc(O)cc(O)c2C(=O)O1 (stereo partly drawn) [Compound 11Z]

IC50 [1]: 0.03 µM
Compound: C[C@@H]1C/C=C/[C@@H](N)C/C=C/C(=N/OCC(=O)N2CCCCC2)Cc2cc(O)cc(O)c2C(=O)O1 [Compound 12E]

IC50 [1]: 0.038 µM
Compound: C[C@@H]1C/C=C/[C@@H](N)C/C=C/C(=N\OCC(=O)N2CCCCC2)Cc2cc(O)cc(O)c2C(=O)O1 [Compound 12Z]

Compound: C[C@@H]1C/C=C/[C@H](N)C/C=C/C(=NOCC(=O)N2CCCCC2)Cc2cc(O)cc(O)c2C(=O)O1 [Compound 13]
IC50 [1]: 0.097 µM

IC50 [1]: 0.223 µM
Compound: CC(=O)N[C@H]1/C=C/C[C@@H](C)OC(=O)c2c(O)cc(O)cc2CC(=N\OCC(=O)N2CCCCC2)/C=C/C1 [Compound 14E]

IC50 [1]: 0.27 µM
Compound: CC(=O)N[C@H]1/C=C/C[C@@H](C)OC(=O)c2c(O)cc(O)cc2CC(=N/OCC(=O)N2CCCCC2)/C=C/C1 [Compound 14Z]

Compound: O=C1OCC/C=C/CC/C=C/C(=N/OCC(=O)N2CCCCC2)Cc2c(Cl)c(O)cc(O)c21 [pochoxime A]
Effect on tumor in xenografts (BT474 breast tumor cells): tumor regression
Concentration inducing client protein degradation [2]: low nM

Compound: pochoxime B
Concentration inducing client protein degradation [2]: low nM

Compound: pochoxime C
Concentration inducing client protein degradation [2]: low nM

— US20150374680A1, “POCHOXIME CONJUGATES USEFUL FOR THE TREATMENT OF HSP90 RELATED PATHOLOGIES” (UNIVERSITE DE STRASBOURG, priority 2010, published 2015)
